Source: US5208223A, “Phosphocholine derivative inhibitors of phospholipase A2” (American Cyanamid Company, priority 1992, dated 1993)
Values joined by “and” are separate entries in the source; they are usually repeats but may differ in a detail not shown here. Equal values may be shown once. Where a name gives a salt, the structure may show the parent alone.

Columns and labels:
Type in all cases: biochemical
[1] = target: T1, porcine pancreatic PLA2 (Sus scrofa, UniProt P00592); assay: MHPLA2 assay: in vitro porcine pancreatic phospholipase A2, mixed micelle design, [s]=10 μm; conditions: for inhibition at 20 µg/mL / % Inh.: subs. con. 10; for inhibition at 50 µg/mL: dose 50 μ/ml
T1 construct: purchased Sigma
T1 sequence (P00592 23-146): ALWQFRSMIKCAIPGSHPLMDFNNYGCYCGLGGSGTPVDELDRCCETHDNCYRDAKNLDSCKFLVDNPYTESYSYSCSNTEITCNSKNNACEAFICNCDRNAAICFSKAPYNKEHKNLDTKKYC
Procedure: (§1) Phospholipase A2 activity was measured by a radiochemical assay in which labeled synthetic phosphatidylcholine substrate is converted by porcine pancreatic PLA2 to free radiolabeled arachidonate and lyso PC. Radiolabeled arachidonate is extracted from the reaction mixture and separated from unreacted substrate by column chromatography or TLC. Radioactivity (cpm) in samples is quantitated by liquid scintillation counting. Specific details are as follows:
(§2) Labeled substrate(1-stearyl-2-^3 H-arachidonylphosphatidylcholine; Amersham, sp. act. 84 (uCi/mmole, 0.025 to 0.2 uCi/assay tube and unlabeled substrates (Avanti), in sufficient quantity to give 20,000 cpm to 50,000 cpm and 10 μM to 1,000 μM final concentration/assay tube are dried under a stream of nitrogen. The PLA2 and mPLA2 assays utilized a […] substrate concentration. The mHPLA2 and HPLA2 assays (vida infra) utilized a 10 μM substrate concentration and the SmPLA2 assay utilized a substrate concentration ranging from 100 to 1000 μm. The substrate is then redissolved in 0.1M tris-HCl buffer, pH 9.0 containing 10 mM CaCl2 and 10 mM Na taurocholate detergent. The mixture is sonicated in a Kontes Sonifier to yield a homogeneous dispersion. The "mixed" micellar substrate is clear. An aliquot is reserved for a cpm count (total substrate). The total reaction volume is 500 μL; siliconized glassware or plasticware is used throughout. Enzyme (Sigma, sp. act.>690 U/mg protein and preferably 900 U/mg protein) is diluted 1:750 or 1:1000 in 0.1M tris-HCl buffer, pH 9.0 (without Ca^++ and detergent). Enzyme dilution depends on substrate concentration and required enzyme concentration.
(§3) The substrate in buffer is kept on ice until the reaction is started. The reaction is started by adding 10 μL of diluted enzyme solution to 490 μL of micellar substrate solution. Samples are incubated in a 37° C. water bath for 15 minutes with gentle mixing. The reaction is terminated by the addition of 100 μL of 1M fresh trichloroacetic acid (TCA) solution and chilling the tubes on ice for 30 minutes.
(§4) Samples (600 μL) are extracted with 3 ml CHCl3 /MeOH (2:1) for thin layer chromatography or in hexane/ether (9:1) for column chromatography. The phases are separated by gentle centrifugation at 700 rpm×5'. The organic phase is recovered.
(§5) Labeled arachidonate extracted with CHCl3 /MeOH is separated on silica gel G TLC plates (Analtech). Twenty μL of a 2 mg/ml internal standard solution of arachidonic acid (Sigma) is combined with 2-3 ml of the organic phase. The entire mixture is dried under nitrogen and redissolved in 50 μL of CHCl3 /MeOH (2:1). A 20 μL sample is counted in 10 ml of Beckman Redi-solv HP and spotted on silica gel G plates. The solvent system used to develop the plate is CHCl3 /MeOH/13.5N NH3 /H2 O (70:30:4:1). Plates are developed in a glass chamber for 1-11/2 hours, air dried, and the spots visualized in an iodine vapor chamber. Standards of phosphatidylcholine, lyso PC, and arachidonic acid (Sigma) are made as 2 mg/ml stocks in CHCl3 /MeOH (2:1) and spotted on plates. Spots corresponding to arachidonate and phospholipid are scraped and counted in 10 ml Beckman Redi-Solv HP scintillation fluid.
(§6) Samples are extracted with hexane/ether and the upper organic phase recovered. An aliquot is applied to a Silicar CC4 (Malincrodt) column. Columns are prepared using 1 ml of a 1:1 slurry of silicar CC4 in hexane/ether in a Pasteur pipet (approx. 2 cm height). Columns are rinsed with 500 μL of hexane/ether before adding the sample (300-600 μL) to the column. Columns are eluted with a total of 6 ml of hexane/ether. The 6 ml sample is counted in 10 ml of Beckman Redi-Solv HP scintillation fluid.
(§7) or the phospholipase A2 assay, compounds are prepared as 1 mg/ml stock solutions in MeOH and diluted appropriately in PBS. […]

[2] = target: T1, porcine pancreatic PLA2; assay: PLA2 assay: in vitro porcine pancreatic phospholipase A2, preincubation of drug+enzyme, substrate 2 nM; conditions: subs. con. 2
Method in brief: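 Porcine pancreatic PLA2 acting on 2 nM radiolabeled arachidonyl-phosphatidylcholine in mixed micelles (0.1 M Tris-HCl pH 9.0, 10 mM CaCl2, 10 mM Na taurocholate), 15 min at 37 °C with preincubation of drug and enzyme. Stopped with TCA; released 3H-arachidonate extracted, separated by TLC or column, counted by scintillation.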

[3] = target: T1, porcine pancreatic PLA2; assay: MPLA2 assay: in vitro porcine pancreatic phospholipase A2, mixed micelle design, substrate 2 nM
Procedure: as §1, §2, §3, §4, §5, §6, §7

[4] = target: T1, porcine pancreatic PLA2; assay: SMPLA2 assay: in vitro porcine pancreatic phospholipase A2, mixed micelle design, substrate 100 to 1000 μm; conditions: for inhibition at 10 µg/mL: dose 10 μ/ml; for inhibition at 25 µg/mL: dose 25 μ/ml; for inhibition at 50 µg/mL: dose 50 μ/ml
Procedure: as §1, §2, §3, §4, §5, §6, §7

[5] = dose 25 μ/ml, subs. con. 10, read-out: % Inh.
[6] = dose 10 μ/ml, preincubation, read-out: % Inh.
[7] = dose 10 μ/ml, preincubation, read-out: % Inh. Avg.
[8] = dose 20 μ/ml, preincubation, read-out: % Inh.
[9] = preincubation, read-out: IC50 (converted)
[10] = dose 10 μ/ml, subs. con. 2, read-out: % Inh.
[11] = dose 20 μ/ml, subs. con. 2, read-out: % Inh.
[12] = dose 25 μ/ml, subs. con. 2, read-out: % Inh.
[13] = dose 25 μ/ml, subs. con. 2, read-out: % Inh. Avg.

`CCCCCCCCCCCCCCCCS(=O)(=O)CCCOP(=O)([O-])OCC[N+](C)(C)C` [4-Hydroxy-N,N,N-trimethyl-3,5-dioxa-9-thia-4-phosphapentacosan-1-aminium, hydroxide, inner salt, 4.9.9-trioxide] showed an inhibition at 10 µg/mL ([1]; dose 10 μ/ml, subs. con. 10, read-out: % Inh.) of 0%, an inhibition at 20 µg/mL ([1]; dose 20 μ/ml) of 19% and an inhibition at 25 µg/mL [1, 5] of 24%. For the same compound, the IC50 ([1]; subs. con. 10, read-out: IC50 (converted)) was 121 µM, the inhibition at 10 µg/mL [2, 6] was 65% and the inhibition at 10 µg/mL [2, 7] was 69%. For the same compound, the inhibition at 20 µg/mL [2, 8] was 88%, the IC50 [2, 9] was 9.54 µM and the inhibition at 10 µg/mL [3, 10] was 24%. For the same compound, the inhibition at 20 µg/mL [3, 11] was 62% and the IC50 ([3]; subs. con. 2) was 37.2 µM.
`CCCCCCCCCCCCCCCCOCC(COP(=O)([O-])OCC[N+](C)(C)C)COP(=O)(Oc1ccccc1)Oc1ccccc1` (centres unmarked) [4-[(Hexadecyloxy)methyl]-7-hydroxy-N,N,N-trimethyl-1,1-diphenoxy-2.6.8 trioxa-1.7-diophosphadecan-10-aminium, hydroxide, inner salt, 1,7-dioxide] was tested, and the “% Inh.” value ([1]; dose 25 μ/ml) was 33%, the IC50 ([2]; IC50, preincubation) was 6.59 µM and the “% Inh.” value ([2]; dose 10 μ/ml, preincubation) was 75%. For the same compound, the “% Inh.” value ([2]; dose 20 μ/ml, preincubation) was 85%, the “% Inh.” value ([3]; dose 25 μ/ml, subs. con. 2) was 62% and 97% and the “% Inh. Avg.” value ([3]; dose 25 μ/ml, subs. con. 2) was 79%.
Work on `CCCCCCCCCCCCCCCCOCC(COP(=O)([O-])OCC[N+](C)(C)C)CC(=O)C(=O)CCCCCCCCCCCCCCCC` (centres unmarked) [7-(2,3-Dioxononadecyl)-4-hydroxy-N,N,N-trimethyl-3,5,9-trioxa-4-phosphapentacosan-1-aminium, hydroxide, inner salt, 4-oxide] yielded an inhibition at 25 µg/mL [1, 5] of 0%, an inhibition at 10 µg/mL [2, 6] of 61% and an inhibition at 20 µg/mL [2, 8] of 61%. The IC50 [2, 9] was 7.1 µM and the inhibition at 25 µg/mL [3, 12] was 25%.
Work on `CCCCCCCCCCCCCCCCC#CCC(COCCCCCCCCCCCCCCCC)COP(=O)([O-])OCC[N+](C)(C)C` (centres unmarked) [7-(2-Nonadecynyl)-4-hydroxy-N,N,N-trimethyl-3,5,9-trioxa-4-phosphapentacosan-1-aminium, hydroxide, inner salt, 4-oxide] yielded an inhibition at 25 µg/mL [1, 5] of 16%, an inhibition at 10 µg/mL [2, 6] of 57% and an inhibition at 20 µg/mL [2, 8] of 60%. It also gave an IC50 [2, 9] of 6.73 µM and an inhibition at 25 µg/mL [3, 12] of 65%.
`CCCCCCCCCCCCCCCCOCC(COP(=O)([O-])OCC[N+](C)(C)C)CB(O)O` (centres unmarked) [7-(Boronomethyl)-4-hydroxy-N,N,N-trimethyl-3,5,9-trioxa-4-phosphapentacosan-1-aminium, hydroxide, inner salt, 4-oxide] gave an inhibition at 25 µg/mL [1, 5] of 9%, an inhibition at 10 µg/mL [2, 6] of 57% and an inhibition at 20 µg/mL [2, 8] of 77%. It also gave an IC50 [2, 9] of 10.7 µM and an inhibition at 25 µg/mL [3, 13] of 44%.
`CCCCCCCCCCCCCCCCOCC(COP(=O)([O-])OCC[N+](C)(C)C)CS(=O)(=O)CCCCCCCCCCCCCCCC` (centres unmarked) [7-[(Hexadecylsulfonyl)methyl]-4-hydroxy-N,N,N-trimethyl-3,5,9-trioxa-4-phosphapentacosan-1-aminium, hydroxide, inner salt, 4-oxide] gave an inhibition at 25 µg/mL [1, 5] of 19%, an inhibition at 10 µg/mL [2, 6] of 9% and an inhibition at 10 µg/mL [2, 7] of 57%. For the same compound, the inhibition at 20 µg/mL [2, 8] was 82%, the IC50 [2, 9] was 2.99 µM and the inhibition at 25 µg/mL [3, 12] was 80%. For the same compound, the inhibition at 25 µg/mL [3, 13] was 72%.
`CCCCCCCCCCCCCCCCOCC(COP(=O)([O-])OCC[N+](C)(C)C)CSCCCCCCCCCCCCCCCC` (centres unmarked) [7-[(Hexadecylthio)methyl]-4-hydroxy-N,N,N-trimethyl-3,5,9-trioxa-4-phosphapentacosan-1-aminium, hydroxide, inner salt, 4-oxide] was tested, and the “% Inh.” value ([1]; dose 10 μ/ml) was “STIM”, the “% Inh.” value ([1]; dose 20 μ/ml) was “STIM” and the inhibition at 25 µg/mL [1, 5] was 81%. It also gave an inhibition at 10 µg/mL [2, 7] of 26%, an inhibition at 20 µg/mL [2, 8] of 61% and an IC50 [2, 9] of 4.75 µM. The inhibition at 10 µg/mL [3, 10] was 59%, the inhibition at 20 µg/mL [3, 11] was 69% and the inhibition at 25 µg/mL [3, 12] was 79%. It also gave an IC50 ([3]; subs. con. 2) of 7.61 µM.
With `CCCCCCCCCCCCCCCCOCC(COP(=O)([O-])OCC[N+](C)(C)C)OC(=O)C(Br)CCCCCCCCCCCCCCCC` (centres unmarked) [10-Bromo-7-[(hexadecyloxy)methyl]-4-hydroxy-N,N,N-trimethyl-9-oxo-3,5,8-trioxa-4-phosphahexacosan-1-aminium, hydroxide, inner salt, 4-oxide] the inhibition at 10 µg/mL ([1]; dose 10 μ/ml, subs. con. 10, read-out: % Inh. Avg.) was 8%, the inhibition at 25 µg/mL ([1]; dose 25 μ/ml, subs. con. 10, read-out: % Inh. Avg.) was 10% and the inhibition at 50 µg/mL ([1]; subs. con. 10, read-out: % Inh.) was 37%. For the same compound, the inhibition at 50 µg/mL ([1]; subs. con. 10, read-out: % Inh. Avg.) was 137%, the inhibition at 10 µg/mL ([4]; subs. con. 100) was 8% and the inhibition at 10 µg/mL ([4]; subs. con. 500) was 0%. For the same compound, the inhibition at 10 µg/mL ([4]; subs. con. 1000) was 5%, the inhibition at 25 µg/mL ([4]; subs. con. 100) was 1% and the inhibition at 25 µg/mL ([4]; subs. con. 500) was 0%. The inhibition at 25 µg/mL ([4]; subs. con. 1000) was 10%, the inhibition at 50 µg/mL ([4]; subs. con. 100) was 18% and the inhibition at 50 µg/mL ([4]; subs. con. 500) was 8%. The inhibition at 50 µg/mL ([4]; subs. con. 1000) was 6%, the inhibition at 10 µg/mL [3, 10] was 82% and the inhibition at 20 µg/mL [3, 11] was 82%. For the same compound, the IC50 ([3]; subs. con. 2) was 1.81 µM.
`CCCCCCCCCCCCCCCC[C@]1(COP(=O)([O-])OCC[N+](C)(C)C)CC(=O)N1` [(2R)-2-[[[(2-Hexadecyl-4-oxo-2-azetidinyl)methoxy]hydroxyphosphinyl]oxy]-N,N,N-trimethylethanaminium, hydroxide, inner salt] was tested, and the “% Inh.” value ([1]; dose 10 μ/ml) was “STIM”, the inhibition at 20 µg/mL ([1]; dose 20 μ/ml) was 0% and the inhibition at 25 µg/mL [1, 5] was 26%. It also gave an inhibition at 10 µg/mL [2, 6] of 82%, an inhibition at 20 µg/mL [2, 8] of 79% and an IC50 [2, 9] of 2.85 µM. For the same compound, the “% Inh.” value ([3]; dose 10 μ/ml, subs. con. 2) was “STIM” and the “% Inh.” value ([3]; dose 20 μ/ml, subs. con. 2) was “STIM”.
Work on `CCCCCCCCCCCCCCCCCC(=O)NCC(CO)COCCCCCCCCCCCCCCCC` (centres unmarked) [N-[3-(Hexadecyloxy)-2-hydroxymethyl)propyl]octadecanamide] yielded an inhibition at 25 µg/mL [1, 5] of 35%, an inhibition at 20 µg/mL [2, 8] of 24% and an inhibition at 25 µg/mL ([2]; dose 25 μ/ml, preincubation, read-out: % Inh.) of 93%. It also gave an inhibition at 25 µg/mL [3, 12] of 93%.
